Measured values taken from patent US8449898B2 (priority 2007, dated 2013).
Like-named read-outs stand apart in the source and are kept apart here.

Columns and labels:
[1] = tested on: Phytophthora infestans (the causal agent of tomato late blight); experiment: whole plant or invertebrate; assay type: in vivo; conditions: for TLB Obsd (disease control rating): Table A; for TLB Obsd: component (b) alone; for pest or weed control at 0.08 ppm / pest or weed control at 0.4 ppm / pest or weed control at 2 ppm / pest or weed control at 10 ppm / pest or weed control at 40 ppm: Phytophthora infestans
[2] = tested on: Pseudoperonospora cubensis (the causal agent of cucumber downy mildew); experiment: Test B: cucumber downy mildew, preventive spray on cucumber seedlings; assay type: in vivo; conditions: for CDM Obsd (disease control rating): Table A

Question: How did the “TLB Obsd (disease control rating)” value ([1]; component (b) alone 0.4 ppm) turn out when `CCCOc1nc2ccc(I)cc2c(=O)n1CCC` [proquinazid] was run?
Answer: 0%

Question: And the “TLB Obsd (disease control rating)” value ([1]; component (b) alone 2 ppm)?
Answer: 0%

Question: What about the “TLB Obsd (disease control rating)” value ([1]; component (b) alone 10 ppm) of the same compound?
Answer: 0%

Question: What about the “TLB Obsd (disease control rating)” value ([1]; component (b) alone 40 ppm) of the same compound?
Answer: 24%

Question: What about the “TLB Obsd (disease control rating)” value ([1]; component (b) alone 200 ppm) of the same compound?
Answer: 0%

Question: And the “TLB Obsd” value ([1]; 0.04 ppm)?
Answer: 17%

Question: And the “TLB Obsd” value ([1]; 2 ppm)?
Answer: 0%

Question: What about the “TLB Obsd” value ([1]; 10 ppm) of the same compound?
Answer: 8%

Question: And the “TLB Obsd” value ([1]; 40 ppm)?
Answer: 8%

Question: What about the “TLB Obsd” value ([1]; 200 ppm) of the same compound?
Answer: 17%

Question: And the “CDM Obsd (disease control rating)” value ([2]; component (b) alone 0.4 ppm)?
Answer: 47%

Question: What about the “CDM Obsd (disease control rating)” value ([2]; component (b) alone 2 ppm) of the same compound?
Answer: 47%

Question: And the “CDM Obsd (disease control rating)” value ([2]; component (b) alone 10 ppm)?
Answer: 47%

Question: And the “CDM Obsd (disease control rating)” value ([2]; component (b) alone 40 ppm)?
Answer: 47%

Question: What about the “CDM Obsd (disease control rating)” value ([2]; component (b) alone 200 ppm) of the same compound?
Answer: 47%

Question: What about the “CDM Obsd” value ([2]; Table G, component (b) alone at 0.4 ppm) of the same compound?
Answer: 26%

Question: What about the “CDM Obsd” value ([2]; Table G, component (b) alone at 2 ppm) of the same compound?
Answer: 26%

Question: And the “CDM Obsd” value ([2]; Table G, component (b) alone at 10 ppm)?
Answer: 26%

Question: What about the “CDM Obsd” value ([2]; Table G, component (b) alone at 40 ppm) of the same compound?
Answer: 26%

Question: And the “CDM Obsd” value ([2]; Table G, component (b) alone at 200 ppm)?
Answer: 26%

Question: And the “CDM Obsd” value ([2]; component (b) alone, 0.04 ppm)?
Answer: 0%

Question: What about the “CDM Obsd” value ([2]; component (b) alone, 2 ppm) of the same compound?
Answer: 0%

Question: What about the “CDM Obsd” value ([2]; component (b) alone, 10 ppm) of the same compound?
Answer: 0%

Question: What about the “CDM Obsd” value ([2]; component (b) alone, 40 ppm) of the same compound?
Answer: 0%

Question: And the “CDM Obsd” value ([2]; component (b) alone, 200 ppm)?
Answer: 0%

Question: For `COC(=O)N(OC)c1ccccc1COc1ccn(-c2ccc(Cl)cc2)n1` [pyraclostrobin], which pest or weed control at 0.08 ppm ([1]; read-out: TLB Obsd (observed effect, tomato late blight), component (b) alone, 0.08 ppm) is on record?
Answer: 15%

Question: And the pest or weed control at 0.4 ppm ([1]; read-out: TLB Obsd (observed effect, tomato late blight), component (b) alone, 0.4 ppm)?
Answer: 35%

Question: And the pest or weed control at 2 ppm ([1]; read-out: TLB Obsd (observed effect, tomato late blight), component (b) alone, 2 ppm)?
Answer: 63%

Question: And the pest or weed control at 10 ppm ([1]; read-out: TLB Obsd (observed effect, tomato late blight), component (b) alone, 10 ppm)?
Answer: 90%

Question: What about the pest or weed control at 40 ppm ([1]; read-out: TLB Obsd (observed effect, tomato late blight), component (b) alone, 40 ppm) of the same compound?
Answer: 94%

Question: What about the pest or weed control at 0.08 ppm ([1]; read-out: TLB Obsd, Table D, component (b) alone at 0.08 ppm) of the same compound?
Answer: 26%

Question: What about the pest or weed control at 0.4 ppm ([1]; read-out: TLB Obsd, Table D, component (b) alone at 0.4 ppm) of the same compound?
Answer: 40%

Question: And the pest or weed control at 2 ppm ([1]; read-out: TLB Obsd, Table D, component (b) alone at 2 ppm)?
Answer: 78%

Question: What about the pest or weed control at 10 ppm ([1]; read-out: TLB Obsd, Table D, component (b) alone at 10 ppm) of the same compound?
Answer: 85%

Question: And the pest or weed control at 40 ppm ([1]; read-out: TLB Obsd, Table D, component (b) alone at 40 ppm)?
Answer: 95%

Question: What about the pest or weed control at 0.08 ppm ([2]; Pseudoperonospora cubensis, Table D, component (b) alone at 0.08 ppm, read-out: CDM Obsd) of the same compound?
Answer: 47%

Question: What about the pest or weed control at 0.4 ppm ([2]; Pseudoperonospora cubensis, Table D, component (b) alone at 0.4 ppm, read-out: CDM Obsd) of the same compound?
Answer: 47%

Question: What about the pest or weed control at 2 ppm ([2]; Pseudoperonospora cubensis, Table D, component (b) alone at 2 ppm, read-out: CDM Obsd) of the same compound?
Answer: 98%

Question: And the pest or weed control at 10 ppm ([2]; Pseudoperonospora cubensis, Table D, component (b) alone at 10 ppm, read-out: CDM Obsd)?
Answer: 100%

Question: And the pest or weed control at 40 ppm ([2]; Pseudoperonospora cubensis, Table D, component (b) alone at 40 ppm, read-out: CDM Obsd)?
Answer: 100%

Question: And the pest or weed control at 0.08 µg/mL ([2]; Pseudoperonospora cubensis, component (b) alone 0.08 ppm (Compound 1 0 ppm), read-out: CDM Obsd)?
Answer: 47%

Question: What about the pest or weed control at 0.4 µg/mL ([2]; Pseudoperonospora cubensis, component (b) alone 0.4 ppm (Compound 1 0 ppm), read-out: CDM Obsd) of the same compound?
Answer: 47%

Question: And the pest or weed control at 2 µg/mL ([2]; Pseudoperonospora cubensis, component (b) alone 2 ppm (Compound 1 0 ppm), read-out: CDM Obsd)?
Answer: 57%

Question: And the pest or weed control at 10 µg/mL ([2]; Pseudoperonospora cubensis, component (b) alone 10 ppm (Compound 1 0 ppm), read-out: CDM Obsd)?
Answer: 100%

Question: What about the pest or weed control at 40 µg/mL ([2]; Pseudoperonospora cubensis, component (b) alone 40 ppm (Compound 1 0 ppm), read-out: CDM Obsd) of the same compound?
Answer: 100%

Question: What about the pest or weed control at 0.08 ppm ([2]; Pseudoperonospora cubensis, component (b) alone, 0.08 ppm, read-out: CDM Obsd (observed effect, cucumber downy mildew)) of the same compound?
Answer: 0%

Question: What about the pest or weed control at 0.4 ppm ([2]; Pseudoperonospora cubensis, component (b) alone, 0.4 ppm, read-out: CDM Obsd (observed effect, cucumber downy mildew)) of the same compound?
Answer: 0%

Question: And the pest or weed control at 2 ppm ([2]; Pseudoperonospora cubensis, component (b) alone, 2 ppm, read-out: CDM Obsd (observed effect, cucumber downy mildew))?
Answer: 68%

Question: And the pest or weed control at 10 ppm ([2]; Pseudoperonospora cubensis, component (b) alone, 10 ppm, read-out: CDM Obsd (observed effect, cucumber downy mildew))?
Answer: 100%

Question: What about the pest or weed control at 40 ppm ([2]; Pseudoperonospora cubensis, component (b) alone, 40 ppm, read-out: CDM Obsd (observed effect, cucumber downy mildew)) of the same compound?
Answer: 100%
